Data published in ChEMBL document CHEMBL5113465, “Design, synthesis and evaluation of alpha lipoic acid derivatives to treat multiple sclerosis-associated central neuropathic pain” (Bioorg Med Chem, 2022).

Key:
[1] = Half life in pH 1.5 gastric enzyme-free fluid assessed as parent compound remaining neutralized with 0.1 N triethylamine solution at 20 mins interval for 3 hrs by HPLC analysis; type: ADME
[2] = Half life in pH 6.8 intestinal enzyme-free fluid assessed as parent compound remaining neutralized with 0.1 N triethylamine solution at 20 mins interval for 3 hrs by HPLC analysis; type: ADME
[3] = Stability in mouse plasma at 1 to 500 ppm measured within 1 min by LC-MS analysis; type: ADME, cell-free; conditions: dose 1-500 ppm
[4] = Aqueous solubility of compound; type: physicochemical
[5] = Half life in mouse plasma at 0.1 to 50 ppm by LC-MS analysis; type: ADME, cell-free; conditions: dose 0.1-50 ppm
[6] = Octanol/water partition coefficient, log P of the compound by HPLC analysis; type: physicochemical
[7] = Stability of compound in pH 1.5 gastric enzyme-free fluid assessed as decomposition measured within 20 mins by HPLC analysis; type: ADME; conditions: buffer, pH 1.5, 20 min
[8] = Stability of compound in pH 6.8 intestinal enzyme-free fluid assessed as decomposition measured within 20 mins by HPLC analysis; type: ADME; conditions: buffer, pH 6.8, 20 min
[9] = Apparent permeability in human Caco-2 cells measured after 15 mins by LC-MS analysis; type: ADME, cell-based
[10] = aqueous medium, read-out: solubility

Row | SMILES | half-life [1] | half-life [2] | logP [6] | solubility [4, 10] | further results
1 | CN1CCN(CCOC(=O)CCCC[C@@H]2CCSS2)CC1 | > 2 h | > 2 h |  |  | 
2 | Cl.O=C(CCCC[C@@H]1CCSS1)OCCN1CCOCC1 |  |  |  |  | Stability [3]: Unstable; solubility ([4]; buffer): Soluble
3 | O=C(CCCC[C@@H]1CCSS1)O[C@H]1[C@H](O)[C@@H](CO)OC(O)[C@@H]1O (some centres undefined) |  |  | 0.31 | > 10000 µM | half-life [5]: 1.5 h
4 | O=C(CCCC[C@@H]1CCSS1)OCCN1CCOCC1 |  |  | 2.64 | < 10 µM | Drug degradation [7]: Active; Drug degradation [8]: Active
5 | O=C(CCCC[C@@H]1CCSS1)OC(CO)CO | > 2 h | > 2 h |  |  | 
6 | O=C(CCCC[C@@H]1CCSS1)OCc1cc(=O)c(O)co1 | > 2 h | > 2 h | 2.03 | < 10 µM | 
7 | O=C(CCCC[C@@H]1CCSS1)OCCOCCOCCO | > 2 h | > 2 h |  |  | 
8 | Cc1oc(=O)oc1COC(=O)CCCC[C@@H]1CCSS1 | > 2 h | > 2 h |  |  | Papp at 0.25 h [9]: 15.9 ×10⁻⁶ cm/s
9 | O=C(CCCC[C@@H]1CCSS1)OC[C@H]1OC(O)[C@H](O)[C@@H](O)[C@@H]1O (some centres undefined) |  |  | 0.94 | < 2000 µM | 
